# Reference: patent US20050096360A1, “Inhibitors of semicarbazide-sensitive amine oxidase (SSAO) and VAP-1 mediated adhesion useful for treatment of diseases” (priority 2003, published 2005)
# Structures can show the parent of a compound that is named as a salt.
# Key:
# EAE in C57BL/6 mice = experiment: Experimental autoimmune encephalomyelitis (EAE), MOG 35-55; format: in vivo; conditions: separate experiment, same protocol, FIG. 3
# Procedure: SSAO/VAP-1 is expressed on the endothelium of inflamed tissues/organs including brain and spinal cord. Its ability to support lymphocyte transendothelial migration may be an important systemic function of SSAO/VAP-1 in inflammatory diseases such as multiple sclerosis and Alzheimer's disease. An analysis of the use of SSAO inhibitors to treat inflammatory disease of the central nervous system (CNS) was performed through the use of an experimental autoimmune encephalomyelitis model (EAE) in C57BL/6 mice. EAE in rodents is a well-characterized and reproducible animal model of multiple sclerosis in human (Benson J. M. et al. (2000) J. Clin. Invest. 106:1031). Multiple sclerosis is a chronic immune-mediated disease of the CNS characterized by pachy perivenular inflammatory infiltrates in areas of demyelination and axonal loss. As an animal model, EAE can be induced in mice by immunization with encephalitogenic myelin antigens in the presence of adjuvant. The pathogenesis of EAE comprises presentation of myelin antigens to T cells, migration of activated T cells to the CNS, and development of inflammation and/or demyelination upon recognition of the same antigens.
# Thirty female C57BL/6 mice were immunized subcutaneously (s.c). with myelin oligodendrocyte glycoprotein 35-55 (MOG peptide 35-55) in Complete Freund Adjuvant (CFA) on day 0, followed by i.p. injections of pertussis toxin (one pertussis toxin injection on day 0, a second pertussis toxin injection on day 2). Groups of 10 mice received either the allylamine compound mofegiline (AA, 10 mg/kg/dose, twice daily for 18 consecutive days), methotrexate (2.5 mg/kg/day, every other day (Mon., Weds., Fri.) till day 18) or vehicle control (twice/day for 18 consecutive days) all-starting from one day after the immunization and all administered i.p. Then animals were monitored for body weight, signs of paralysis and death according to a 0-5 scale of scoring system as follows: 1=limp tail or waddling gait with tail tonicity; 2=waddling gait with limp tail (ataxia); 2.5=ataxia with partial limb paralysis; 3=full paralysis of one limb; 3.5=full paralysis of one limb with partial paralysis of second limb; 4=full paralysis of two limbs; 4.5=moribund; 5=death. Results are shown in FIG. 2A, FIG. 2B, and FIG. 2C. […] (p=0.04 by repeated measure analysis to assess the treatment effect. Proper polynomial transformation, with the spacing corresponding to the collection days, was applied to test the time effect). Statistically significant differences in diseases severity between the AA and vehicle-treated groups, continued even after stopping compound administration and were observed until the end of the study (d25) .
# [1] = test system: collagen-induced arthritis (CIA) in mice; experiment: Antibody-mediated collagen-induced arthritis in mice; format: in vivo; conditions: 20 mg/kg i.p. twice daily
# Procedure: The murine CIA model used in this study is called antibody-mediated CIA, and can be induced by i.v. injection of a combination of different anti-type II collagen monoclonal antibodies (Terato K., et al. (1995). Autoimmunity. 22:137).
# In this example, arthrogen-collagen-induced arthritis antibody kits were purchased from Chemicon International (Temecula, Calif.) and arthritis was induced using the manufacturer's protocol. Mice were injected i.v. with a cocktail of 4 anti-collagen Type II monoclonal antibodies (0.5 mg each) on day 0, followed by i.p. injection of 25 μg lipopolysaccharide (LPS) on day 2. Mice develop swollen wrists, ankles, and digits 3-4 days after LPS injection, with disease incidence of 90% by day 7. Severity of arthritis in each limb was scored for 12 days as follows: 0=normal; 1=mild redness, slight swelling of ankle or wrist; 2=moderate redness and swelling of ankle or wrist; 3=severe redness and swelling of some digits, ankle and paw; 4=maximally inflamed limb. Animals were divided in 3 groups of 6 animals: vehicle, methotrexate (MTX)-treated, and compound-treated. Animals in the vehicle group were injected i.p. with phosphate buffer saline (PBS), twice daily for 12 days (starting on day 0). MTX (3 mg/kg) was administered i.p. starting on day 0 and continuing every other day (Mon., Weds., Fri.) for the duration of the experiment.
# For each of the two sets of data (arthritis score and paw swelling), a repeated measure analysis was performed to assess the treatment effect.
# The relative RT-PCR approach was used. To perform this experiment, a kit from Ambion (USA) was used that employs 18S ribosomal RNA (rRNA) as an internal control. In addition to the rRNA primers, the kit also provides specific primers for the amplification of the different cytokines to be analyzed. […] At the end of the study, animals were euthanized and the right hind paws were extracted and frozen. Total RNA was isolated using 1 ml of Trizol reagent (Invitrogen, USA) per 50-100 mg tissue according to the manufacturer's instructions. […]
# [2] = test system: oxazolone-induced colitis in SJL/J mice
# Procedure: Oxazolone colitis is induced as described (Fuss I. J. et al. (2002) J. Immunol. 168: 900). Briefly, mice are pre-sensitized by skin epicutaneous application of 3% oxazolone (4-ethoxymethylene-2-phenyl-2oxazolin-5-one, Sigma) in 100% EtOH (150 μl) on day 0, followed by intrarectal administration of 1% oxazolone in 50% EtOH (100 μl) to anesthetized SJL/J male mice on day 5 through a 3.5 F catheter inserted 4 cm proximal to the anal verge. Mice are divided in three treatment groups and injected i.p. twice a day with: PBS and a compound of the invention. Injections are initiated at day 0 and are continued through day 7 or the end of the study.
# A study was carried out using the protocol in Example 20 for oxazolone-induced colitis. Injections were initiated at day 0 and were continued through the end of the study. Disease progression was evaluated for 12 days (6 days after intrarectal administration) by monitoring survival rates and body weight, as well as by macroscopic evidence of colitis (i.e. rectal prolapse, colon size, colon weight). (2-phenylallyl)hydrazine was administered at 10 mg/kg, i.p. twice a day, starting on the day of skin pre-sensitization (day 0). […] Kaplan-Meyer survival curves and unpaired t tests were calculated using GraphPad Prism software (San Diego, Calif.).
# Thus, animals from a similar study were sacrificed seven days after initial sensitization and their colons removed and fixed in […]. Tissue processing and analysis were performed blindly at a contract laboratory (Pathology Associates, Frederick, Md.). Briefly, after paraffin embedding 5 μm sections were cut and stained with hematoxylin and eosin. Three cross sections were taken from each animal at 1 cm (section 1), 3 cm (section 2), and 6 cm (section 3) from the anus. The degrees of ulceration, inflammation (in mucosa, submucosa, serosa, and outer muscular layers) and epithelial injury (including mucosal and submucosal abscess, submucosal fibrosis, glandular distortion and mucosal and submucosal edema/hemorrhage), were graded semiquantitatively as 0—absent; 1—minimal; 2—mild; 3—moderate; 4—marked. […] Kaplan-Meyer survival curves were calculated using GraphPad Prism software (San Diego, Calif.).
# [3] = test system: relapsing EAE in SJL/J mice; experiment: Chronic relapsing EAE (model of chronic multiple sclerosis); format: in vivo; conditions: 10 mg/kg i.p. bid for 53 days
# Procedure: An analysis of the use of VAP-1/SSAO inhibitors to treat inflammatory diseases of the CNS is performed through the use of a relapsing experimental autoimmune encephalomyelitis model (EAE) in SJL/J mice.
# To examine the role of VAP-1 as a major regulator of lymphocyte recruitment to the CNS, VAP-1/SSAO inhibitor was evaluated in a chronic relapsing EAE model.
# Then animals were monitored for signs of paralysis according to a 0-5 scale of scoring system as follows: • 0.5 partial tail weakness • 1 limp tail or waddling gait with tail tonicity; • 1.5 waddling gait with partial tail weakness • 2 waddling gait with limp tail (ataxia); • 2.5 ataxia with partial limb paralysis; • 3 full paralysis of one limb; • 3.5 full paralysis of one limb with partial paralysis of second limb; • 4 full paralysis of two limbs; • 4.5 moribund; • 5 death.
# The results are expressed as mean clinical score (FIG. 9A), % incidence (number of mice with any paralysis/10 mice) (FIG. 9B), % mice with chronic disease (mice with at least one relapse) (FIG. 9C), and cumulative total number of relapses (FIG. 9D).
# [4] = 10 mg/kg i.p. twice a day from day 0, vs vehicle
# [5] = day 7, 20 mg/kg/day from day 0, section 2
smiles,measurement,setting,value
"C=C(CNN)c1ccccc1 [Example 2, Hydrochloride]",development and severity of disease,EAE in C57BL/6 mice,clearly had a therapeutic effect
same,final arthritis score,"[1]; day 0-11, p=0.0046 vs PBS",clearly reduced
same,paw swelling,"[1]; day 0-11, p=0.0060 vs PBS",clearly reduced
same,"levels of TNFα mRNA in the paws (relative RT-PCR, TNFα:18S rRNA)",[1]; right hind paws at end of study,able to reduce
same,body weight loss,[2]; [4],significantly improved
same,survival rates,[2]; [4],significantly improved
same,inflammatory index (histology),[2]; [5],significant effect
same,ulceration index (histology),[2]; [5],significant effect
same,cumulative number of relapses,[3]; p<0.0001 vs buffer,statistically significant reduction
same,incidence of chronic disease (mice with at least one relapse),[3]; p<0.0001 vs buffer,significant lower
same,overall clinical severity,[3]; p<0.005 vs buffer,statistically significant reduction
